# From patent US4416884A, “Piperazinylbenzoheterocyclic compounds” (Otsuka Pharmaceutical Co., Ltd., priority 1978, dated 1983)
# Like-named read-outs stand apart in the source and are kept apart here.
# What was measured:
# Type in all cases: cell-based
# [1] = tested on: Bacillus subtilis PCI 219; test: antimicrobial activity, serial dilution method on agar plate
# Outline: (§1)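 Serial dilution on Heart Infusion agar; inoculum 1×10^8 cells/ml (O.D. 660 mμ 0.07–0.16) or 1×10^6 cells/ml diluted from it; MIC in mcg/ml.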
# [2] = tested on: Corinebacterium diphteriae; test: as above
# Outline: as §1
# [3] = tested on: Enterobacter aerogenes IFO 12979; test: as above; details: Klebsiella aerogenes
# Outline: as §1
# Enterobacter cloacae = test: as above
# Outline: as §1
# [4] = tested on: Escherichia Coli NIHJ JC-2 (IFO 12734); test: as above; details: Escherichia coli, read-out: Minimum Inhibitory Concentration
# Outline: as §1
# [5] = tested on: Klebsiella pneumoniae ST-101; test: as above
# Outline: as §1
# Proteus rettgeri NIH 96 = test: as above; details: Providencia rettgeri
# Outline: as §1
# [6] = tested on: Proteus vulgaris IID OX-19; test: as above; details: read-out: Minimum Inhibitory Concentration
# Outline: as §1
# [7] = tested on: Pseudomonas aeruginosa NCTC 10490; test: as above
# Outline: as §1
# [8] = tested on: Pseudomonas maltophilia IFO 12692; test: as above; details: Stenotrophomonas maltophilia
# Outline: as §1
# [9] = tested on: Streptococcus pneumoniae Type III; test: as above
# Outline: as §1
# [10] = tested on: Streptococcus pneumoniae Type II; test: as above
# Outline: as §1
# [11] = tested on: Streptococcus pyogenes IID Cook; test: as above
# Outline: as §1
# [12] = tested on: Streptococcus pyogenes IID S-23; test: as above
# Outline: as §1
# [13] = tested on: Yersinia enterocolitica 0-5; test: as above
# [14] = tested on: Test Organism 1 (Escherichia Coli NIHJ); test: influence of the addition of horse serum on the MIC
# [15] = tested on: Test Organism 17 (Pseudomonas putida IFO 13696); test: as above
# [16] = tested on: Test Organism 16 (Pseudomonas maltophilia IFO 12692); test: as above; details: Stenotrophomonas maltophilia
# [17] = read-out: Minimum Inhibitory Concentration, inoculum 1 × 10^6 cells/ml
# [18] = read-out: Minimum Inhibitory Concentration, inoculum 1 × 10^8 cells/ml
# [19] = inoculum 1 × 10^6 cells/ml, read-out: Minimum Inhibitory Concentration
# [20] = inoculum 1 × 10^8 cells/ml, read-out: Minimum Inhibitory Concentration
structure (smiles),measurement,setting,value
CC1Cc2c(N3CCNCC3)ccc3c(=O)c(C(=O)O)cn1c23 (stereo not drawn) [C],MIC,"[1]; PCI219, read-out: Minimum Inhibitory Concentration, inoculum 1 × 10^6 cells/ml",3.1 µg/mL
same,MIC,"[1]; PCI219, read-out: Minimum Inhibitory Concentration, inoculum 1 × 10^8 cells/ml",3.1 µg/mL
same,MIC,[2]; [17],6.3 µg/mL
same,MIC,[2]; [18],25 µg/mL
same,MIC,"[3]; IFO12979, read-out: Minimum Inhibitory Concentration, inoculum 1 × 10^6 cells/ml",0.4 µg/mL
same,MIC,"[3]; IFO12979, read-out: Minimum Inhibitory Concentration, inoculum 1 × 10^8 cells/ml",0.8 µg/mL
same,MIC,Enterobacter cloacae; [17],0.4 µg/mL
same,MIC,Enterobacter cloacae; [18],0.8 µg/mL
same,MIC,[4],1.6 µg/mL
same,MIC,"[5]; ST101, read-out: Minimum Inhibitory Concentration, inoculum 1 × 10^6 cells/ml",0.2 µg/mL
same,MIC,"[5]; ST101, read-out: Minimum Inhibitory Concentration, inoculum 1 × 10^8 cells/ml",0.8 µg/mL
same,MIC,"Proteus rettgeri NIH 96; NIH96, read-out: Minimum Inhibitory Concentration, inoculum 1 × 10^6 cells/ml",0.8 µg/mL
same,MIC,"Proteus rettgeri NIH 96; NIH96, read-out: Minimum Inhibitory Concentration, inoculum 1 × 10^8 cells/ml",0.8 µg/mL
same,MIC,"[6]; IIDOX19, inoculum 1 × 10^6 cells/ml",0.8 µg/mL
same,MIC,"[6]; IIDOX19, inoculum 1 × 10^8 cells/ml",3.1 µg/mL
same,MIC,"[7]; NCTC10490, read-out: Minimum Inhibitory Concentration, inoculum 1 × 10^6 cells/ml",3.1 µg/mL
same,MIC,"[7]; NCTC10490, read-out: Minimum Inhibitory Concentration, inoculum 1 × 10^8 cells/ml",6.3 µg/mL
same,MIC,"[8]; IFO12692, read-out: Minimum Inhibitory Concentration",6.3 µg/mL
same,MIC,[9]; [17],50 µg/mL
same,MIC,[9]; [18],100 µg/mL
same,MIC,[10]; [17],50 µg/mL
same,MIC,[10]; [18],100 µg/mL
same,MIC,[11]; [17],25 µg/mL
same,MIC,[11]; [18],50 µg/mL
same,MIC,"[12]; IIDS23, read-out: Minimum Inhibitory Concentration, inoculum 1 × 10^6 cells/ml",50 µg/mL
same,MIC,"[12]; IIDS23, read-out: Minimum Inhibitory Concentration, inoculum 1 × 10^8 cells/ml",100 µg/mL
same,MIC,"[13]; Yersinia enterocolitica, 05, read-out: Minimum Inhibitory Concentration, inoculum 1 × 10^6 cells/ml",1.6 µg/mL
same,MIC,"[13]; Yersinia enterocolitica, 05, read-out: Minimum Inhibitory Concentration, inoculum 1 × 10^8 cells/ml",1.6 µg/mL
same,MIC,"[14]; read-out: Minimum Inhibitory Concentration, horse serum 0%, inoculum 10^6",12.5 µg/mL
same,MIC,"[14]; read-out: Minimum Inhibitory Concentration, horse serum 0%, inoculum 10^8",12.5 µg/mL
same,MIC,"[14]; read-out: Minimum Inhibitory Concentration, horse serum 10%, inoculum 10^6",6.3 µg/mL
same,MIC,"[14]; read-out: Minimum Inhibitory Concentration, horse serum 10%, inoculum 10^8",12.5 µg/mL
same,MIC,"[14]; read-out: Minimum Inhibitory Concentration, horse serum 20%, inoculum 10^6",6.3 µg/mL
same,MIC,"[14]; read-out: Minimum Inhibitory Concentration, horse serum 20%, inoculum 10^8",12.5 µg/mL
same,MIC,"[14]; read-out: Minimum Inhibitory Concentration, horse serum 40%, inoculum 10^6",6.3 µg/mL
same,MIC,"[14]; read-out: Minimum Inhibitory Concentration, horse serum 40%, inoculum 10^8",12.5 µg/mL
same,MIC,"[15]; IFO13696, read-out: Minimum Inhibitory Concentration, horse serum 0%, inoculum 10^6",0.4 µg/mL
same,MIC,"[15]; IFO13696, read-out: Minimum Inhibitory Concentration, horse serum 0%, inoculum 10^8",0.8 µg/mL
same,MIC,"[15]; IFO13696, read-out: Minimum Inhibitory Concentration, horse serum 10%, inoculum 10^6",0.4 µg/mL
same,MIC,"[15]; IFO13696, read-out: Minimum Inhibitory Concentration, horse serum 10%, inoculum 10^8",0.8 µg/mL
same,MIC,"[15]; IFO13696, read-out: Minimum Inhibitory Concentration, horse serum 20%, inoculum 10^6",0.4 µg/mL
same,MIC,"[15]; IFO13696, read-out: Minimum Inhibitory Concentration, horse serum 20%, inoculum 10^8",0.8 µg/mL
same,MIC,"[15]; IFO13696, read-out: Minimum Inhibitory Concentration, horse serum 40%, inoculum 10^6",0.4 µg/mL
same,MIC,"[15]; IFO13696, read-out: Minimum Inhibitory Concentration, horse serum 40%, inoculum 10^8",0.4 µg/mL
same,MIC,"[16]; IFO12692, read-out: Minimum Inhibitory Concentration, horse serum 0%, inoculum 10^6",1.6 µg/mL
same,MIC,"[16]; IFO12692, read-out: Minimum Inhibitory Concentration, horse serum 0%, inoculum 10^8",1.6 µg/mL
same,MIC,"[16]; IFO12692, read-out: Minimum Inhibitory Concentration, horse serum 10%, inoculum 10^6",1.6 µg/mL
same,MIC,"[16]; IFO12692, read-out: Minimum Inhibitory Concentration, horse serum 10%, inoculum 10^8",1.6 µg/mL
same,MIC,"[16]; IFO12692, read-out: Minimum Inhibitory Concentration, horse serum 20%, inoculum 10^6",0.4 µg/mL
same,MIC,"[16]; IFO12692, read-out: Minimum Inhibitory Concentration, horse serum 20%, inoculum 10^8",0.8 µg/mL
same,MIC,"[16]; IFO12692, read-out: Minimum Inhibitory Concentration, horse serum 40%, inoculum 10^6",0.4 µg/mL
same,MIC,"[16]; IFO12692, read-out: Minimum Inhibitory Concentration, horse serum 40%, inoculum 10^8",0.4 µg/mL
CC1CCc2cc(F)cc3c(=O)c(C(=O)O)cn1c23 (stereo not drawn) [F],MIC,"[1]; PCI219, inoculum 1 × 10^6 cells/ml, read-out: Minimum Inhibitory Concentration",0.2 µg/mL
same,MIC,"[1]; PCI219, inoculum 1 × 10^8 cells/ml, read-out: Minimum Inhibitory Concentration",0.4 µg/mL
same,MIC,[2]; [19],> 6.3 µg/mL
same,MIC,[2]; [20],> 25 µg/mL
same,MIC,"[3]; IFO12979, inoculum 1 × 10^6 cells/ml, read-out: Minimum Inhibitory Concentration",0.2 µg/mL
same,MIC,"[3]; IFO12979, inoculum 1 × 10^8 cells/ml, read-out: Minimum Inhibitory Concentration",0.4 µg/mL
same,MIC,Enterobacter cloacae; [19],0.2 µg/mL
same,MIC,Enterobacter cloacae; [20],0.4 µg/mL
same,MIC,[4]; inoculum 1 × 10^6 cells/ml,0.4 µg/mL
same,MIC,[4]; inoculum 1 × 10^8 cells/ml,0.8 µg/mL
same,MIC,"[5]; ST101, inoculum 1 × 10^6 cells/ml, read-out: Minimum Inhibitory Concentration",0.1 µg/mL
same,MIC,"[5]; ST101, inoculum 1 × 10^8 cells/ml, read-out: Minimum Inhibitory Concentration",0.2 µg/mL
same,MIC,"Proteus rettgeri NIH 96; NIH96, inoculum 1 × 10^6 cells/ml, read-out: Minimum Inhibitory Concentration",0.1 µg/mL
same,MIC,"Proteus rettgeri NIH 96; NIH96, inoculum 1 × 10^8 cells/ml, read-out: Minimum Inhibitory Concentration",0.2 µg/mL
same,MIC,"[7]; NCTC10490, inoculum 1 × 10^6 cells/ml, read-out: Minimum Inhibitory Concentration",12.5 µg/mL
same,MIC,"[7]; NCTC10490, inoculum 1 × 10^8 cells/ml, read-out: Minimum Inhibitory Concentration",25 µg/mL
same,MIC,"[8]; IFO12692, inoculum 1 × 10^8 cells/ml, read-out: Minimum Inhibitory Concentration",25 µg/mL
same,MIC,[9]; [20],> 100 µg/mL
same,MIC,[10]; [20],> 100 µg/mL
same,MIC,[11]; [20],> 100 µg/mL
same,MIC,"[12]; IIDS23, inoculum 1 × 10^6 cells/ml, read-out: Minimum Inhibitory Concentration",> 100 µg/mL
same,MIC,"[12]; IIDS23, inoculum 1 × 10^8 cells/ml, read-out: Minimum Inhibitory Concentration",> 100 µg/mL
same,MIC,"[13]; Yersinia enterocolitica, 05, inoculum 1 × 10^8 cells/ml, read-out: Minimum Inhibitory Concentration",0.4 µg/mL
same,MIC,"[14]; horse serum 0%, inoculum 10^6, read-out: Minimum Inhibitory Concentration",1.6 µg/mL
same,MIC,"[14]; horse serum 0%, inoculum 10^8, read-out: Minimum Inhibitory Concentration",1.6 µg/mL
same,MIC,"[14]; horse serum 10%, inoculum 10^6, read-out: Minimum Inhibitory Concentration",3.1 µg/mL
same,MIC,"[14]; horse serum 10%, inoculum 10^8, read-out: Minimum Inhibitory Concentration",3.1 µg/mL
same,MIC,"[14]; horse serum 20%, inoculum 10^6, read-out: Minimum Inhibitory Concentration",3.1 µg/mL
same,MIC,"[14]; horse serum 20%, inoculum 10^8, read-out: Minimum Inhibitory Concentration",6.3 µg/mL
same,MIC,"[14]; horse serum 40%, inoculum 10^6, read-out: Minimum Inhibitory Concentration",12.5 µg/mL
same,MIC,"[14]; horse serum 40%, inoculum 10^8, read-out: Minimum Inhibitory Concentration",12.5 µg/mL
same,MIC,"[15]; IFO13696, horse serum 0%, inoculum 10^6, read-out: Minimum Inhibitory Concentration",0.1 µg/mL
same,MIC,"[15]; IFO13696, horse serum 0%, inoculum 10^8, read-out: Minimum Inhibitory Concentration",0.2 µg/mL
same,MIC,"[15]; IFO13696, horse serum 10%, inoculum 10^6, read-out: Minimum Inhibitory Concentration",0.2 µg/mL
same,MIC,"[15]; IFO13696, horse serum 10%, inoculum 10^8, read-out: Minimum Inhibitory Concentration",0.4 µg/mL
same,MIC,"[15]; IFO13696, horse serum 20%, inoculum 10^6, read-out: Minimum Inhibitory Concentration",0.2 µg/mL
same,MIC,"[15]; IFO13696, horse serum 20%, inoculum 10^8, read-out: Minimum Inhibitory Concentration",0.2 µg/mL
same,MIC,"[15]; IFO13696, horse serum 40%, inoculum 10^6, read-out: Minimum Inhibitory Concentration",0.2 µg/mL
same,MIC,"[15]; IFO13696, horse serum 40%, inoculum 10^8, read-out: Minimum Inhibitory Concentration",0.2 µg/mL
same,MIC,"[16]; IFO12692, horse serum 0%, inoculum 10^6, read-out: Minimum Inhibitory Concentration",0.8 µg/mL
same,MIC,"[16]; IFO12692, horse serum 0%, inoculum 10^8, read-out: Minimum Inhibitory Concentration",0.8 µg/mL
same,MIC,"[16]; IFO12692, horse serum 10%, inoculum 10^6, read-out: Minimum Inhibitory Concentration",0.4 µg/mL
same,MIC,"[16]; IFO12692, horse serum 10%, inoculum 10^8, read-out: Minimum Inhibitory Concentration",0.8 µg/mL
same,MIC,"[16]; IFO12692, horse serum 20%, inoculum 10^6, read-out: Minimum Inhibitory Concentration",1.6 µg/mL
same,MIC,"[16]; IFO12692, horse serum 20%, inoculum 10^8, read-out: Minimum Inhibitory Concentration",0.8 µg/mL
same,MIC,"[16]; IFO12692, horse serum 40%, inoculum 10^6, read-out: Minimum Inhibitory Concentration",1.6 µg/mL
same,MIC,"[16]; IFO12692, horse serum 40%, inoculum 10^8, read-out: Minimum Inhibitory Concentration",1.6 µg/mL
